From patent publication US20240425464A1, “Substituted Monohydrazides as Potent Antifungal Agents” (University of Kentucky Research Foundation, priority 2023, published 2024)
Converted amounts (≈) assume the structure as drawn. Read-outs that look alike come from different tables or passages of the source.

Legend:
Test in all cases: MIC determination by in vitro antifungal assay
[1] = tested on: C. albicans ATCC 64124 (B); type: cell-based, Candida albicans
Protocol: (§1) 10 mg/mL stock solutions of compounds 1a-9j were prepared in dimethyl sulfoxide (DMSO) and were stored at −20° C. in the dark. The antifungal agent amphotericin B (AmB) was purchased from VWR (Radnor PA, USA). AmB was dissolved in DMSO at a final concentration of 5 mg/mL and was stored at −20° C., protected from light. Candida albicans American Type Culture Collection (ATCC) 10231 (strain A), C. albicans ATCC 64124 (B), and C. albicans ATCC MYA-2876 (C) were obtained from Utah State University. C. albicans ATCC 90819 (D), C. albicans ATCC MYA-2310 (E), C. albicans ATCC MYA-1237 (F), C. albicans ATCC MYA-1003 (G), Candida glabrata ATCC 2001 (H), Candida krusei ATCC 6258 (I), Candida parapsilosis ATCC 22019 (J), Cryptococcus neoformans ATCC MYA-895 (M), Aspergillus terreus ATCC MYA-3633 (N), and Aspergillus flavus ATCC MYA-3631 (0) were obtained from the American Type Culture Collection (ATCC; Manassas, VA, USA). Aspergillus nidulans ATCC 38163 (P) was obtained from University of Kentucky. Clinically derived Aspergillus fumigatus NRRL 163 (Q), A. fumigatus NRRL 5109 (R), and A. fumigatus NRRL 6113 (S) were obtained from Northern Regional Research Laboratory (NRRL). Candida auris 384 (K), C. auris 390 (L), and fungal strains 381-400 (including 10 C. auris (AR Bank #381-390), 3 Candida duobushaemulonii (AR Bank #391, AR Bank #392, and AR Bank #394), 2 Candida haemulonii (AR Bank #393 and AR Bank #395), 1 Kodameae ohmeri (AR Bank #396), 1 C. krusei (AR Bank #397), 1 Candida lusitaniae (AR Bank #398), and 2 Saccharomyces cerevisiae strains (AR Bank #399 and AR Bank #400)) were part of a larger fungal library from the AR Bank maintained by the Centers for Disease Control and Prevention (CDC; Atlanta, GA, USA). Filamentous fungi and yeasts were cultivated at 35° C. in RPMI 1640 medium (with L-glutamine, without sodium bicarbonate, Sigma-Aldrich, St. Louis, MO) buffered to a pH of 7.0 with 0.165 M morpholinepropanesulfonic acid (MOPS) buffer (Sigma-Aldrich). For cytotoxicity assays, HepG2 and the mouse macrophage cell line J774A.1 were obtained from University of Kentucky. The human embryonic kidney cell line, HEK-293, was bought from the ATCC. Mammalian cells were grown in Dulbecco's Modified Eagle's Medium (DMEM) (from VWR) with 10% fetal bovine serum (FBS) (from VWR) and 1% Pen/Strep (from ATCC). Cell lines were cultured at 37° C. with 5% CO2 and passaged by trypsinization with 0.05% trypsin: 0.53 mM EDTA (from Sigma-Aldrich).
(§2) The MIC values of compounds 1a-9j against yeast cells (strains A-P and 381-400) were determined in 96-well plates as described in the CLSI documents M27-A3 and M38-A2 with minor modifications.^2 A single colony of freshly prepared yeast cells was used to inoculate 5 mL of yeast extract peptone dextrose (YPD) broth prior to incubation overnight with shaking at 200 rpm at 35° C. From the actively growing yeast culture, 100 µL were then transferred to 900 μL of RPMI 1640 medium and re-adjusted to achieve OD600 of 0.12 (˜1×10^6 CFU/mL). The cell suspension was further diluted to achieve 1:100 in RPMI 1640 medium. 100 μL of cells were added to the wells of a 96-well microtiter plates that contained 100 µL of the compound solution to obtain concentrations of 0.06-31.3 μg/mL of compounds 1a-9j or AmB prior to incubation for 48 h at 35° C. […]

[2] = tested on: C. albicans ATCC 90819 (D); type: cell-based, Candida albicans
Protocol: as §1, §2

[3] = tested on: C. albicans ATCC MYA-1003 (G); type: cell-based, Candida albicans; conditions: strain G = C. albicans ATCC MYA-1063(R) (footnote), MYA-1003 in text
Protocol: as §1, §2

[4] = tested on: C. albicans ATCC MYA-1237 (F); type: cell-based, Candida albicans; conditions: strain F = C. albicans ATCC MYA-1237(R)
Protocol: as §1, §2

[5] = tested on: C. albicans ATCC MYA-2310 (E); type: cell-based, Candida albicans; conditions: strain E = C. albicans ATCC MYA-2310
Protocol: as §1, §2

[6] = tested on: C. albicans ATCC MYA-2876 (C); type: cell-based, Candida albicans; conditions: strain C = C. albicans ATCC MYA-2876(S)
Protocol: as §1, §2

[7] = tested on: Candida glabrata ATCC 2001 (H); type: cell-based; conditions: ATCC 2001 in text
Protocol: as §1, §2

[8] = tested on: Candida krusei ATCC 6258 (I); type: cell-based
Protocol: as §1, §2

[9] = tested on: Candida parapsilosis ATCC 22019 (J); type: cell-based
Protocol: as §1, §2

[10] = Candida albicans, ATCC64124, strain B = C. albicans ATCC 64124, read-out: MIC
[11] = Candida albicans, ATCC90819, strain D = C. albicans ATCC 90819(R), read-out: MIC
[12] = Candida albicans, read-out: MIC
[13] = Nakaseomyces glabratus, ATCC 2001 / ATCC 2004, strain H = C. glabrata ATCC 2004 (footnote), read-out: MIC
[14] = Pichia kudriavzevii, ATCC6258, strain I = C. krusei ATCC 6258, read-out: MIC
[15] = Lodderomyces parapsilosis, ATCC22019, strain J = C. parapsilosis ATCC 22019, read-out: MIC
[16] = strain B = C. albicans ATCC 64124
[17] = strain D = C. albicans ATCC 90819(R)
[18] = strain H = C. glabrata ATCC 2004 (footnote)
[19] = strain J = C. parapsilosis ATCC 22019

O=C(NNc1ccc(F)cc1F)c1cccc(F)n1 [Compound 5g]
MIC [1, 10]: 1.95 µg/mL (≈ 7.3 µM)
MIC [2, 11]: 3.9 µg/mL (≈ 14.6 µM)
MIC [3, 12]: 0.98 µg/mL (≈ 3.67 µM)
MIC [4, 12]: 1.95 µg/mL (≈ 7.3 µM)
MIC [5, 12]: 1.95 µg/mL (≈ 7.3 µM)
MIC [6, 12]: 1.95 µg/mL (≈ 7.3 µM)
MIC [7, 13]: 31.3 µg/mL (≈ 117 µM)
MIC [8, 14]: 0.98 µg/mL (≈ 3.67 µM)
MIC [9, 15]: 31.3 µg/mL (≈ 117 µM)

COc1ccc(NNC(=O)c2ccccn2)cc1 [Compound 2f]
MIC [1, 10]: 0.98 µg/mL (≈ 4.03 µM)
MIC [2, 11]: 0.49 µg/mL (≈ 2.01 µM)
MIC [3, 12]: 0.98 µg/mL (≈ 4.03 µM)
MIC [4, 12]: 0.98 µg/mL (≈ 4.03 µM)
MIC [5, 12]: 0.98 µg/mL (≈ 4.03 µM)
MIC [6, 12]: 1.95 µg/mL (≈ 8.02 µM)
MIC [7, 13]: 0.98 µg/mL (≈ 4.03 µM)
MIC [8, 14]: 0.49 µg/mL (≈ 2.01 µM)
MIC [9, 15]: 3.9 µg/mL (≈ 16 µM)

O=C(NNc1cccc(F)c1)c1ncc(F)cc1F [Compound 7a]
MIC [1, 16]: 0.98 μg/mL^−1
MIC [2, 17]: 3.9 μg/mL^−1
MIC [3]: 1.95 μg/mL^−1
MIC [4]: 3.9 μg/mL^−1
MIC [5]: 1.95 μg/mL^−1
MIC [6]: 1.95 μg/mL^−1
MIC [7, 18]: 31.3 μg/mL^−1
MIC ([8]; strain I = C. krusei ATCC 6258): 0.24 μg/mL^−1
MIC [9, 19]: 1.95 μg/mL^−1

O=C(NNc1cccc(F)c1)c1cccc(Br)n1 [Compound 6a]
MIC [1, 16]: 1.95 μg/mL^−1
MIC [2, 17]: 7.8 μg/mL^−1
MIC [3]: 3.9 μg/mL^−1
MIC [4]: 3.9 μg/mL^−1
MIC [5]: 3.9 μg/mL^−1
MIC [6]: 1.95 μg/mL^−1
MIC [7, 18]: >31.3 μg/mL^−1
MIC ([8]; strain I = C. krusei ATCC 6258): 0.49 μg/mL^−1
MIC [9, 19]: 1.95 μg/mL^−1

O=C(NNc1cccc(F)c1)c1ccc(F)cn1 [Compound 3a]
MIC [1, 16]: 0.49 μg/mL^−1
MIC [2, 17]: 3.9 μg/mL^−1
MIC [3]: 1.95 μg/mL^−1
MIC [4]: 3.9 μg/mL^−1
MIC [5]: 3.9 μg/mL^−1
MIC [6]: 3.9 μg/mL^−1
MIC [7, 18]: 31.3 μg/mL^−1
MIC ([8]; strain I = C. krusei ATCC 6258): 0.24 μg/mL^−1
MIC [9, 19]: 1.95 μg/mL^−1

COc1ccc(NNC(=O)c2ccc(F)cc2F)cc1 [Compound 1f]
MIC [1, 10]: 1.95 µg/mL (≈ 7.01 µM)
MIC [2, 11]: 1.95 µg/mL (≈ 7.01 µM)
MIC [3, 12]: 1.95 µg/mL (≈ 7.01 µM)
MIC [4, 12]: 1.95 µg/mL (≈ 7.01 µM)
MIC [5, 12]: 1.95 µg/mL (≈ 7.01 µM)
MIC [6, 12]: 1.95 µg/mL (≈ 7.01 µM)
MIC [7, 13]: 3.9 µg/mL (≈ 14 µM)
MIC [8, 14]: 0.98 µg/mL (≈ 3.52 µM)
MIC [9, 15]: 7.8 µg/mL (≈ 28 µM)

O=C(NNc1cc(F)cc(F)c1)c1ccccn1 [Compound 2i]
MIC [1, 10]: 0.98 µg/mL (≈ 3.93 µM)
MIC [2, 11]: 0.98 µg/mL (≈ 3.93 µM)
MIC [3, 12]: 0.49 µg/mL (≈ 1.97 µM)
MIC [4, 12]: 1.95 µg/mL (≈ 7.82 µM)
MIC [5, 12]: 0.98 µg/mL (≈ 3.93 µM)
MIC [6, 12]: 0.98 µg/mL (≈ 3.93 µM)
MIC [7, 13]: 7.8 µg/mL (≈ 31.3 µM)
MIC [8, 14]: 0.24 µg/mL (≈ 0.963 µM)
MIC [9, 15]: 1.95 µg/mL (≈ 7.82 µM)

O=C(NNc1ccc(F)cc1F)c1cnccn1 [Compound 9g]
MIC [1, 10]: 0.98 µg/mL (≈ 3.92 µM)
MIC [2, 11]: 0.98 µg/mL (≈ 3.92 µM)
MIC [3, 12]: 0.49 µg/mL (≈ 1.96 µM)
MIC [4, 12]: 0.49 µg/mL (≈ 1.96 µM)
MIC [5, 12]: 3.9 µg/mL (≈ 15.6 µM)
MIC [6, 12]: 0.98 µg/mL (≈ 3.92 µM)
MIC [7, 13]: 0.98 µg/mL (≈ 3.92 µM)
MIC [8, 14]: 0.24 µg/mL (≈ 0.959 µM)
MIC [9, 15]: 3.9 µg/mL (≈ 15.6 µM)

COc1cccc(NNC(=O)c2ccccn2)c1 [Compound 2c]
MIC [1, 16]: 0.98 μg/mL^−1
MIC [2, 17]: 1.95 μg/mL^−1
MIC [3]: 0.98 μg/mL^−1
MIC [4]: 1.95 μg/mL^−1
MIC [5]: 1.95 μg/mL^−1
MIC [6]: 0.98 μg/mL^−1
MIC [7, 18]: 13.6 μg/mL^−1
MIC ([8]; strain I = C. krusei ATCC 6258): 0.49 μg/mL^−1
MIC [9, 19]: 3.9 μg/mL^−1
